Laboratory results published in patent US20260317324A1, “BIFUNCTIONAL COMPOUNDS FOR DEGRADING BRAF VIA UBIQUITIN PROTEOSOME PATHWAY” (Nurix Therapeutics, Inc., priority 2023, published 2026).

Legend:
Type in all cases: cell-based
BRAF D594G = biological target: T1, BRAF D594G (Homo sapiens, UniProt P15056, D594G); experiment: BRAF HiBiT degradation assay, C-terminal HiBiT-tagged BRAF D594G overexpressed in HCT-116 BRAF−/− cells (clone 63), Nano-Glo HiBiT Lytic assay; details: BRAF D594G (Class 3), HCT-116 BRAF−/− cells; for DC50: DC50 at 50% degradation; for Dmax: observed Dmax relative to DMSO control
T1 construct: Horizon Discovery (HCT-116 BRAF−/− cells); host or cells: HCT-116 BRAF−/− cells, clone 63, lentiviral transduction
How it was run: (§1)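 We quantified degradation of the C-terminally HiBiT-tagged, overexpressed mutant by lytic luminescence, normalizing to DMSO-treated cells with wild-type HCT-116 background subtracted. Dose series ran from 1 μM to 0.01 nM at 0.2% DMSO. Observed Dmax is % degraded at maximal effect.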

BRAF V600E = biological target: T2, BRAF V600E (Homo sapiens, UniProt P15056, V600E); experiment: BRAF HiBiT degradation assay, C-terminal HiBiT-tagged BRAF V600E A375 cells (clone 1F10), Nano-Glo HiBiT Lytic assay; details: A375 (BRAF V600E, Class 1); for DC50: DC50 at 50% degradation; for Dmax: A-375, observed Dmax, % protein degraded relative to DMSO control
T2 construct: endogenous C-terminal HiBiT fusion tag on BRAF V600E allele; endogenous in cells; host or cells: A375 clone 1F10 (CRISPR-Cas9 knock-in of the HiBiT tag; parental A375 from ATCC)
How it was run: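 Steps: seed HiBiT-tagged A375 clone 1F10 cells; incubate 24 h, 37 °C, 5% CO2; add compound (11 half-log points from 1 μM, 0.2% DMSO); lyse with HiBiT detection reagent plus LgBiT for 10 min; read luminescence; fit % protein remaining against concentration.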

BRAF G469A = biological target: T3, BRAF G469A (Homo sapiens, UniProt P15056, G469A); experiment: BRAF HiBiT degradation assay, C-terminal HiBiT-tagged BRAF G469A overexpressed in HCT-116 BRAF−/− cells (clone 34), Nano-Glo HiBiT Lytic assay; details: BRAF G469A (Class 2), HCT-116 BRAF−/− cells; for DC50: DC50 at 50% degradation; for Dmax: observed Dmax relative to DMSO control
T3 construct: Horizon Discovery (HCT-116 BRAF−/− cells); host or cells: HCT-116 BRAF−/− cells, clone 34, lentiviral transduction
How it was run: as §1

BRAF G466V = biological target: T4, BRAF G466V (Homo sapiens, UniProt P15056, G466V); experiment: BRAF HiBiT degradation assay, C-terminal HiBiT-tagged BRAF G466V overexpressed in HCT-116 BRAF−/− cells (clone 8), Nano-Glo HiBiT Lytic assay; details: BRAF G466V (Class 3), HCT-116 BRAF−/− cells; for DC50: DC50 at 50% degradation; for Dmax: observed Dmax relative to DMSO control
T4 construct: Horizon Discovery (HCT-116 BRAF−/− cells); host or cells: HCT-116 BRAF−/− cells, clone 8, lentiviral transduction
How it was run: as §1

T2 sequence (P15056 whole entry V600E, the tested form may be a part): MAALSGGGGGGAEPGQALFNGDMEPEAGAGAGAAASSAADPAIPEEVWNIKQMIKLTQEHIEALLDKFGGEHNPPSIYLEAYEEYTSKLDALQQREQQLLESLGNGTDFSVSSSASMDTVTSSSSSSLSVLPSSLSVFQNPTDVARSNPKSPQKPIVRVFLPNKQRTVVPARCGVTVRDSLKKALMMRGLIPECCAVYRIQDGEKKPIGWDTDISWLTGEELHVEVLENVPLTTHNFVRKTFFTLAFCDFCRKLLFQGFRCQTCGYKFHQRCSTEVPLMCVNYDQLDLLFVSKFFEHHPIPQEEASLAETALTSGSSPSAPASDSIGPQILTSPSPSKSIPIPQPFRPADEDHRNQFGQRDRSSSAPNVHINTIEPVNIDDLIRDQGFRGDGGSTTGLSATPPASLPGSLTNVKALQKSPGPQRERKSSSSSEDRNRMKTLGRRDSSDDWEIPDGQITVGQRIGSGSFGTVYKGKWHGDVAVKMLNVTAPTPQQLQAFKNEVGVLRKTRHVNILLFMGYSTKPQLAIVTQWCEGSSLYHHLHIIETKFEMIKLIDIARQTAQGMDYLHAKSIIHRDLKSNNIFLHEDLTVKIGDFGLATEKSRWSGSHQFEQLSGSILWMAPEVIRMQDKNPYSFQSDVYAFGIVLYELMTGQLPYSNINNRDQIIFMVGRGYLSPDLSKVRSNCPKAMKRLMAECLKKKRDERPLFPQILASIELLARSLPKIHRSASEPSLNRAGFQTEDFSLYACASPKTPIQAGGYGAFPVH
T1 sequence (P15056 whole entry D594G): as the sequence (P15056 whole entry V600E, the tested form may be a part) above, with D594G, E600V counted along it
T4 sequence (P15056 whole entry G466V): as the sequence (P15056 whole entry V600E, the tested form may be a part) above, with G466V, E600V counted along it
T3 sequence (P15056 whole entry G469A): as the sequence (P15056 whole entry V600E, the tested form may be a part) above, with G469A, E600V counted along it

| SMILES | DC50 (BRAF D594G) | Dmax (BRAF D594G) | DC50 (BRAF V600E) | Dmax (BRAF V600E) | DC50 (BRAF G469A) | Dmax (BRAF G469A) | DC50 (BRAF G466V) | Dmax (BRAF G466V) |
| --- | --- | --- | --- | --- | --- | --- | --- | --- |
| CCCS(=O)(=O)Nc1cc(Cl)cc(-c2cn(-c3ccc(N4CCN(CC5CCN(c6ccc(C7CCC(=O)NC7=O)cn6)CC5)[C@H](C)C4)cc3)nc2-c2ccncc2)c1F (mixture of isomers) [Compound 276, N-[5-chloro-3-(1-{4-[(3R)-4-[(1-{5-[(3RS)-2,6-dioxopiperidin-3-yl]pyridin-2-yl}piperidin-4-yl)methyl]-3-methylpiperazin-1-yl]phenyl}-3-(pyridin-4-yl)-1H-pyrazol-4-yl)-2-fluorophenyl]propane-1-sulfonamide] | < 10 nM | 30 to 70% | < 10 nM | > 70% | < 10 nM | > 70% | < 10 nM | > 70% |
| CCCS(=O)(=O)Nc1cc(Cl)cc(-c2cn(-c3ccc(N4CCN(CC5CCN(c6ccc(C7CCC(=O)NC7=O)cn6)CC5)[C@@H](C)C4)cc3)nc2-c2ccncc2)c1F (mixture of isomers) [Compound 279, N-[5-chloro-3-(1-{4-[(3S)-4-[(1-{5-[(3RS)-2,6-dioxopiperidin-3-yl]pyridin-2-yl}piperidin-4-yl)methyl]-3-methylpiperazin-1-yl]phenyl}-3-(pyridin-4-yl)-1H-pyrazol-4-yl)-2-fluorophenyl]propane-1-sulfonamide] | < 10 nM | 30 to 70% | < 10 nM | > 70% | 10 to 50 nM | 30 to 70% | < 10 nM | > 70% |
| C[C@@H]1CN(c2ccc(-n3cc(-c4cc(F)cc(NS(=O)(=O)N5CCCC5)c4F)c(-c4ccncc4)n3)c(F)c2)CCN1CC1CCN(c2ccc(C3CCC(=O)NC3=O)cn2)CC1 (mixture of isomers) [Compound 289, N-(3-(1-(4-((R)-4-((1-(5-((RS)-2,6-dioxopiperidin-3-yl)pyridin-2-yl)piperidin-4-yl)methyl)-3-methylpiperazin-1-yl)-2-fluorophenyl)-3-(pyridin-4-yl)-1H-pyrazol-4-yl)-2,5-difluorophenyl)pyrrolidine-1-sulfonamide] | < 10 nM | > 70% | < 10 nM | > 70% | 10 to 50 nM | > 70% | < 10 nM | > 70% |
| O=C1CCC(c2ccc(N3CCC(CN4CCN(c5ccc(-n6cc(-c7cc(Cl)cc(NS(=O)(=O)N8CC[C@@H](F)C8)c7F)c(-c7ccncc7)n6)nc5)CC4)CC3)nc2)C(=O)N1 (mixture of isomers) [Compound 296, (3R)—N-{5-chloro-3-[1-(5-{4-[(1-{5-[(3RS)-2,6-dioxopiperidin-3-yl]pyridin-2-yl}piperidin-4-yl)methyl]piperazin-1-yl}pyridin-2-yl)-3-(pyridin-4-yl)-1H-pyrazol-4-yl]-2-fluorophenyl}-3-fluoropyrrolidine-1-sulfonamide] | < 10 nM | > 70% | < 10 nM | > 70% | < 10 nM | > 70% | < 10 nM | > 70% |
| O=C1CCC(c2ccc(N3CCC4(CC3)CC(CN3CCN(c5ccc(-n6cc(-c7cc(Cl)cc(NS(=O)(=O)N8CC[C@@H](F)C8)c7F)c(-c7ccncc7)n6)nc5)CC3)C4)cc2)C(=O)N1 (mixture of isomers) [Compound 298, (3R)—N-{5-chloro-3-[1-(5-{4-[(7-{4-[(3RS)-2,6-dioxopiperidin-3-yl]phenyl}-7-azaspiro[3.5]nonan-2-yl)methyl]piperazin-1-yl}pyridin-2-yl)-3-(pyridin-4-yl)-1H-pyrazol-4-yl]-2-fluorophenyl}-3-fluoropyrrolidine-1-sulfonamide] | > 500 nM | < 30% | 50 to 500 nM | 30 to 70% | > 500 nM | < 30% | > 500 nM | < 30% |
| O=C1CCC(c2ccc(N3CCC(CN4CCN(c5ccc(-n6cc(-c7cc(F)cc(NS(=O)(=O)N8CC[C@@H](F)C8)c7F)c(-c7ccncc7)n6)nc5)CC4)CC3)nc2)C(=O)N1 (mixture of isomers) [Compound 304, (3R)—N-{3-[1-(5-{4-[(1-{5-[(3RS)-2,6-dioxopiperidin-3-yl]pyridin-2-yl}piperidin-4-yl)methyl]piperazin-1-yl}pyridin-2-yl)-3-(pyridin-4-yl)-1H-pyrazol-4-yl]-2,5-difluorophenyl}-3-fluoropyrrolidine-1-sulfonamide] | < 10 nM | > 70% | < 10 nM | > 70% | 10 to 50 nM | > 70% | < 10 nM | > 70% |
| C[C@@H]1CN(c2ccc(-n3cc(-c4cc(Cl)cc(NS(=O)(=O)N5CC[C@@H](F)C5)c4F)c(-c4ccncc4)n3)cc2)CCN1CC1CCN(c2ccc(C3CCC(=O)NC3=O)cn2)CC1 (mixture of isomers) [Compound 318, (3R)—N-[5-chloro-3-(1-{4-[(3R)-4-[(1-{5-[(3RS)-2,6-dioxopiperidin-3-yl]pyridin-2-yl}piperidin-4-yl)methyl]-3-methylpiperazin-1-yl]phenyl}-3-(pyridin-4-yl)-1H-pyrazol-4-yl)-2-fluorophenyl]-3-fluoropyrrolidine-1-sulfonamide] | < 10 nM | > 70% | < 10 nM | > 70% | < 10 nM | > 70% | < 10 nM | > 70% |
| C[C@@H]1CN(c2ccc(-n3cc(-c4cc(Cl)cc(NS(=O)(=O)N5CC[C@@H](F)C5)c4F)c(-c4ccncc4)n3)nc2)CCN1CC1CCN(c2ccc(C3CCC(=O)NC3=O)cn2)CC1 (mixture of isomers) [Compound 321, (3R)—N-[5-chloro-3-(1-{5-[(3R)-4-[(1-{5-[(3RS)-2,6-dioxopiperidin-3-yl]pyridin-2-yl}piperidin-4-yl)methyl]-3-methylpiperazin-1-yl]pyridin-2-yl}-3-(pyridin-4-yl)-1H-pyrazol-4-yl)-2-fluorophenyl]-3-fluoropyrrolidine-1-sulfonamide] | < 10 nM | > 70% | < 10 nM | > 70% | < 10 nM | > 70% | < 10 nM | > 70% |
| C[C@@H]1CN(c2ccc(-n3cc(-c4cc(Cl)cc(NS(=O)(=O)N5CCCC5)c4F)c(-c4ccncc4)n3)nc2)CCN1CC1CCN(c2ccc(C3CCC(=O)NC3=O)cn2)CC1 (mixture of isomers) [Compound 323, N-[5-chloro-3-(1-{5-[(3R)-4-[(1-{5-[(3RS)-2,6-dioxopiperidin-3-yl]pyridin-2-yl}piperidin-4-yl)methyl]-3-methylpiperazin-1-yl]pyridin-2-yl}-3-(pyridin-4-yl)-1H-pyrazol-4-yl)-2-fluorophenyl]pyrrolidine-1-sulfonamide] | < 10 nM | > 70% | < 10 nM | > 70% | < 10 nM | > 70% | < 10 nM | > 70% |
| CCC(C)S(=O)(=O)Nc1cc(Cl)cc(-c2cn(-c3ccc(N4CCN(CC5CCN(c6ccc([C@H]7CCC(=O)NC7=O)cn6)CC5)CC4)cc3)nc2-c2ccncc2)c1F (mixture of isomers) [Compound 327, (RS)—N-(5-chloro-3-(1-(4-(4-((1-(5-((R)-2,6-dioxopiperidin-3-yl)pyridin-2-yl)piperidin-4-yl)methyl)piperazin-1-yl)phenyl)-3-(pyridin-4-yl)-1H-pyrazol-4-yl)-2-fluorophenyl)butane-2-sulfonamide] | < 10 nM | > 70% | < 10 nM | > 70% | 10 to 50 nM | > 70% | < 10 nM | > 70% |
| CCC(C)S(=O)(=O)Nc1cc(Cl)cc(-c2cn(-c3ccc(N4CCN(CC5CCN(c6ccc([C@@H]7CCC(=O)NC7=O)cn6)CC5)CC4)cc3)nc2-c2ccncc2)c1F (mixture of isomers) [Compound 329, Rac-(R)—N-(5-chloro-3-(1-(4-(4-((1-(5-((S)-2,6-dioxopiperidin-3-yl)pyridin-2-yl)piperidin-4-yl)methyl)piperazin-1-yl)phenyl)-3-(pyridin-4-yl)-1H-pyrazol-4-yl)-2-fluorophenyl)butane-2-sulfonamide] | < 10 nM | > 70% | < 10 nM | > 70% | 10 to 50 nM | > 70% | < 10 nM | > 70% |
